Data taken from article PMC5537602, “TRPA1 channel mediates organophosphate-induced delayed neuropathy” (Cell Discovery, 2017).
Entries after “also recorded” stand apart in the source; their conditions may differ.

Experiments:
cTRPA1 = molecular target: T1, cTRPA1 (Gallus gallus, UniProt W8VTH6); experiment: Whole-cell patch-clamp, HEK293 cells expressing cTRPA1; type: cell-based, chicken
T1 sequence (W8VTH6 1-1126): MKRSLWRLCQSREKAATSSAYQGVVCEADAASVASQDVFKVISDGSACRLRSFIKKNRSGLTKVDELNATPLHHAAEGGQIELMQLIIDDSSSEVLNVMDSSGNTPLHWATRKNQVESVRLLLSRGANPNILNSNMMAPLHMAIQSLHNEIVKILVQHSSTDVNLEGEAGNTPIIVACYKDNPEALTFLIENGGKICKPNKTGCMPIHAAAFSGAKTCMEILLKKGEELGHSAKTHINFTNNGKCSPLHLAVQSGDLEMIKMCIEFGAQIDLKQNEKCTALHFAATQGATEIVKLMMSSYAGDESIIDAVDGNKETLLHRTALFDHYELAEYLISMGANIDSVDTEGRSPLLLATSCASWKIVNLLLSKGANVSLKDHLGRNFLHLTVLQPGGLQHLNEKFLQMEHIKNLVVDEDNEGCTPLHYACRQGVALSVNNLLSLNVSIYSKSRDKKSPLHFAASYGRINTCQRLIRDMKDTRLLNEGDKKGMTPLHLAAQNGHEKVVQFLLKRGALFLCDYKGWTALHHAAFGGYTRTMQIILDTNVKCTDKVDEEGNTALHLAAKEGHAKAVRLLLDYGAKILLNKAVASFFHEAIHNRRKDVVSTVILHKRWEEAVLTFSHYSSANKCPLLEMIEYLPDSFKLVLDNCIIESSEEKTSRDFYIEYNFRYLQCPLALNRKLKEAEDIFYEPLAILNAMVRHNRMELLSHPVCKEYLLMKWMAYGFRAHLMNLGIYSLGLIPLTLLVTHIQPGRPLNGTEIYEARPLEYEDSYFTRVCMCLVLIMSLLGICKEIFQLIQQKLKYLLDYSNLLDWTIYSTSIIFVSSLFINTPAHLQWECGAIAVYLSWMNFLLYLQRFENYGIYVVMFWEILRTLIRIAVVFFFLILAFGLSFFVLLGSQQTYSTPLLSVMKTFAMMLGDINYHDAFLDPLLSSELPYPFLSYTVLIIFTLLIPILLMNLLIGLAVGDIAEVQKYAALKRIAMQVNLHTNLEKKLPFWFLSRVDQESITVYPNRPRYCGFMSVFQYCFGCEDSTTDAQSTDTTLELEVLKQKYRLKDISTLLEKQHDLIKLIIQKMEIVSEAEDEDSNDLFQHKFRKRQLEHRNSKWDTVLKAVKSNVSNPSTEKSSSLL
Description: (§1) All cell culture reagents were purchased from Life Technologies. HEK293 cells were transfected transiently with the corresponding plasmids using lipofectamine 2000 (Life Technologies). Transfection efficiency was monitored by co-transfecting EGFP plasmid which codes for the enhanced green fluorescent protein. Electrophysiological recordings were performed between 24 and 36 h after transfection.
Whole-cell patch-clamp recordings in DRG neurons (small diameter, […]) and HEK293 cells were operated at room temperature (23–25 °C) using EPC-10 amplifier and Patch Master Software (HEKA). […] Currents were sampled at 10 kHz and low-pass filtered at 2.9 kHz. […] The calcium-free external solution contained (in mM) 140 NaCl, 5 KCl, 0.5 EGTA, 1 MgCl2, 10 Glucose and 10 HEPES, with pH adjusted to 7.4 by NaOH and osmolarity 300–310 mOsm. The 0.5 mM EGTA was replaced by 2 mM CaCl2 for the recordings in DRG neurons. TRPA1 currents development was monitored with repetitive injections of 300 ms duration voltage ramps from −100 to +100 mV every 2 s and the holding potential was set to 0 mV for 50 ms, existing in both sides of the voltage ramp. To record inward currents in DRG neurons, we conducted voltage clamp at holding membrane potential of −70 mV. Solutions were switched using a gravity-fed continuous focal perfusion system.

hens = type: in vivo, hen; details: hens
Description: The chosen adult Hyline Brown hens were raised individually in stainless steel wire cages. After 7 days of acclimatization, the chosen hens were randomly divided into groups (n=6–10 for each group). The hens in the delayed neuropathy groups were administered a single dose of 750 mg kg^−1 TOCP and repeated doses of 75 mg kg^−1 malathion by gavage. TOCP and malathion were dissolved in corn oil and administered at 0.65 ml kg^−1. In the HC030031 treatment groups, 100 mg kg^−1 HC030031 was administered by gavage daily beginning at day 0 or day 11. All hens were examined daily for signs of delayed neurotoxicity. A five-point graded scale was used to describe the clinical symptoms of delayed neuropathy, with 0 indicating normal ambulation; (1) suspected ataxia (lack of strength in the legs and tottering); (2) mild ataxia (slow, clumsy and unsteady gait); (3) gross ataxia (waddling gait and staggering and falling despite being active); (4) mild paralysis (typical paralytic posture and lame appearance); and (5) complete paralysis (unable to maintain posture, stand up or move at all), as described previously.

hTRPA1 = molecular target: T2, hTRPA1 (Homo sapiens, UniProt O75762); experiment: cell-based; type: cell-based
T2 construct: expressed in transfected cells; host or cells: HEK293, transient, EGFP plasmid co-transfected
Description: as §1, with “Human embryonic kidney 293 (HEK293) cells were cultured in DMEM containing 10% (vol/vol) heat-inactivated fetal bovine serum, 100 units ml^−1 penicillin–streptomycin and 2 mM L-glutamine at 37 °C in a humidity-controlled sterile incubator with 5% CO2. All” for “All”
Whole-cell patch-clamp recordings in DRG neurons (small diameter, […]) and HEK293 cells were operated at room temperature (23–25 °C) using EPC-10 amplifier and Patch Master Software (HEKA). […] Currents were sampled at 10 kHz and low-pass filtered at 2.9 kHz. The internal solution was as follows (in mM): 140 CsCl, 10 HEPES, 5 EGTA, 0.1 CaCl2 and 1 MgCl2, with pH adjusted to 7.2 by CsOH and osmolarity 295–300 mOsm. The calcium-free external solution contained (in mM) 140 NaCl, 5 KCl, 0.5 EGTA, 1 MgCl2, 10 Glucose and 10 HEPES, with pH adjusted to 7.4 by NaOH and osmolarity 300–310 mOsm. The 0.5 mM EGTA was replaced by 2 mM CaCl2 for the recordings in DRG neurons. TRPA1 currents development was monitored with repetitive injections of 300 ms duration voltage ramps from −100 to +100 mV every 2 s and the holding potential was set to 0 mV for 50 ms, existing in both sides of the voltage ramp. To record inward currents in DRG neurons, we conducted voltage clamp at holding membrane potential of −70 mV. Solutions were switched using a gravity-fed continuous focal perfusion system.

T2 sequence (O75762 whole entry): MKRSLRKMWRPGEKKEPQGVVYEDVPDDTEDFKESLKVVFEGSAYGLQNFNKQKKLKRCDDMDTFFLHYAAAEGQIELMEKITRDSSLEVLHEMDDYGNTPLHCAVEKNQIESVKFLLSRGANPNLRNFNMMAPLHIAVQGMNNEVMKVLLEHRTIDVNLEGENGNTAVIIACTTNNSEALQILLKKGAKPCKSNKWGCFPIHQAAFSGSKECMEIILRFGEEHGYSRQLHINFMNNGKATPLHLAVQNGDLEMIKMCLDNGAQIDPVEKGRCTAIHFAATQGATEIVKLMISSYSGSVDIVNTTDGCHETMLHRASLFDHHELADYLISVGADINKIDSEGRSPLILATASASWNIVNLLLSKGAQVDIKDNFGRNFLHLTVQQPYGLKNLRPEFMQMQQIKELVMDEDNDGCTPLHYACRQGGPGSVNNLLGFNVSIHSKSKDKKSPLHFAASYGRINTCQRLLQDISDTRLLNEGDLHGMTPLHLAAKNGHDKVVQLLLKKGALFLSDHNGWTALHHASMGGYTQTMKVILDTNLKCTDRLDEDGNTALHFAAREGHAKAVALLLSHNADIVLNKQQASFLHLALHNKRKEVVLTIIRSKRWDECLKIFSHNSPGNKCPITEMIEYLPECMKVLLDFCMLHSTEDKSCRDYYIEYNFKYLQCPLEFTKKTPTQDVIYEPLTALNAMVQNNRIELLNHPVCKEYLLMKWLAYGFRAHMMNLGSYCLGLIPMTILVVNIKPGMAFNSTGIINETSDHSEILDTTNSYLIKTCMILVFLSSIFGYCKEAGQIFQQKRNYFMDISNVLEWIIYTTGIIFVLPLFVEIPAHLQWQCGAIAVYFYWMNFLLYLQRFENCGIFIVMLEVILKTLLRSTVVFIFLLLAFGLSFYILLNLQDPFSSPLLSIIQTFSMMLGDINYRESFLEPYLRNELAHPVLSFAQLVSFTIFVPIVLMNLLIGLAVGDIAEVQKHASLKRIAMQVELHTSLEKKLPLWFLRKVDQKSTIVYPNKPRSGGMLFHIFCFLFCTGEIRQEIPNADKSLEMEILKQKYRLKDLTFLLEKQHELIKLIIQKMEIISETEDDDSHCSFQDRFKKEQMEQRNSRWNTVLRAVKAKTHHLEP

| Compound | EC50 (cTRPA1) | activation of cTRPA1 whole-cell currents (cTRPA1; calcium-free external solution) | clinical symptoms of delayed neuropathy (hens; malathion 75 mg kg−1 q.d. for 11 days, day 5) | activation of hTRPA1 whole-cell currents (hTRPA1; 30 μM, calcium-free external solution) | EC50 (hTRPA1; whole-cell patch-clamp) | block of malathion-elicited cTRPA1 currents (cTRPA1; 10 μM HC030031) | effect on clinical signs of delayed neuropathy induced by TOCP or malathion (hens; HC030031 100 mg kg−1 daily by gavage from day 0 or day 11) | block of agonist-elicited hTRPA1 currents (hTRPA1) |
| --- | --- | --- | --- | --- | --- | --- | --- | --- |
| CCOC(=O)CC(SP(=S)(OC)OC)C(=O)OCC (stereo not drawn) [malathion, S-[1,2-bis (ethoxycarbonyl)ethyl] O, O-dimethyl phosphorodithioate] | 10.8 ± 1.68 µM | large activation current | slow and clumsy gait | large activation current | 14.2 ± 1.84 µM | – | – | – |
| CC(C)c1ccc(NC(=O)Cn2cnc3c2c(=O)n(C)c(=O)n3C)cc1 [HC030031] | – | – | – | – | – | blocked | significantly alleviated | blocked; also recorded: inhibited |
